Assay [1] deals with VCaP. Nature of the assay: Antiproliferative activity against AR-positive human VCaP cells assessed as cell viability at 10 uM measured after 72 hrs by resazurin dye based fluorescence assay relative to control. To be noted: read-out: Activity. The format is functional. On the technique in general: Alamar Blue is a resazurin reagent that responds to reducing activity.
The subject of assay [2] is CWR22R. The assay can be described thus: Antiproliferative activity against AR-positive human 22Rv1 cells harboring ARE14 construct assessed as cell viability at 10 uM measured after 72 hrs by resazurin dye based fluorescence assay relative to control. In kind it is functional. The settings on record: 22Rv1, 72 h, read-out: Activity.
The subject of assay [3] is LNCaP. Nature of the assay: Antiproliferative activity against AR-positive human LNCAP cells assessed as cell viability at 10 uM measured after 72 hrs by resazurin dye based fluorescence assay relative to control. The format is functional. The settings on record: read-out: Activity.
Assay [4] has as its system CWR22R. Nature of the assay: Induction of apoptosis in R1881-activated AR-positive human 22Rv1 cells harboring ARE14 construct assessed as cleaved PARP level at 5 to 20 uM after 24 hrs by immunoblot analysis. The format is functional, cell-based. On the technique in general: In western blotting, separated proteins are transferred to a membrane and probed.
The subject of assay [5] is PC-3. The assay can be described thus: Antiproliferative activity against AR-negative human PC3 cells assessed as cell viability at 10 uM measured after 72 hrs by resazurin dye based fluorescence assay relative to control. In kind it is functional. The settings on record: PC-3, 72 h, read-out: Activity.
For assay [6], the system named is LAPC4. The assay can be described thus: Antiproliferative activity against AR-positive human LAPC4 cells assessed as cell viability at 10 uM measured after 72 hrs by resazurin dye based fluorescence assay relative to control. The format is functional. To be noted: LAPC4, 72 h, read-out: Activity.
Assay [7] has as its system VCaP. The assay can be described thus: Induction of apoptosis in AR-positive human VCaP cells assessed as cleaved PARP level at 5 to 20 uM after 24 hrs by immunoblot analysis. The format is functional, cell-based.
The subject of assay [8] is LAPC4. The assay can be described thus: Antiproliferative activity against AR-positive human LAPC4 cells assessed as growth inhibition measured after 72 hrs by resazurin dye based fluorescence assay. The format is functional. The settings on record: LAPC4, 72 h.
Assay [9] deals with VCaP. Nature of the assay: Antiproliferative activity against AR-positive human VCaP cells assessed as cell viability at 40 uM measured after 72 hrs by resazurin dye based fluorescence assay relative to control. The format is functional. To be noted: read-out: Activity.
The subject of assay [10] is LNCaP. The assay can be described thus: Antiproliferative activity against AR-positive human LNCAP cells assessed as growth inhibition measured after 72 hrs by resazurin dye based fluorescence assay. The format is functional.
The subject of assay [11] is CWR22R. Nature of the assay: Effect on AR-V7 variant protein expression in AR-positive human 22Rv1 cells harboring ARE14 construct at 10 uM after 24 hrs by immunoblot analysis. In kind it is functional, cell-based.
Assay [12] deals with VCaP. The assay can be described thus: Antiproliferative activity against AR-positive human VCaP cells assessed as growth inhibition measured after 72 hrs by resazurin dye based fluorescence assay. The format is functional.
In assay [13] the test system is PC-3. Nature of the assay: Antiproliferative activity against AR-negative human PC3 cells assessed as growth inhibition measured after 72 hrs by resazurin dye based fluorescence assay. The format is functional. The settings on record: PC-3, 72 h.
Assay [14] deals with CWR22R. The assay can be described thus: Antiproliferative activity against AR-positive human 22Rv1 cells harboring ARE14 construct assessed as cell viability at 40 uM measured after 72 hrs by resazurin dye based fluorescence assay relative to control. The format is functional. To be noted: 22Rv1, 72 h, read-out: Activity.
Assay [15] has as its system PC-3. Nature of the assay: Antiproliferative activity against AR-negative human PC3 cells assessed as cell viability at 40 uM measured after 72 hrs by resazurin dye based fluorescence assay relative to control. The format is functional. To be noted: PC-3, 72 h, read-out: Activity.
The test system of assay [16] is LNCaP. Nature of the assay: Antiproliferative activity against AR-positive human LNCAP cells assessed as cell viability at 40 uM measured after 72 hrs by resazurin dye based fluorescence assay relative to control. In kind it is functional. The settings on record: read-out: Activity.
Assay [17] deals with T1, Androgen receptor (Homo sapiens) (UniProt P10275).
T1 sequence (whole entry): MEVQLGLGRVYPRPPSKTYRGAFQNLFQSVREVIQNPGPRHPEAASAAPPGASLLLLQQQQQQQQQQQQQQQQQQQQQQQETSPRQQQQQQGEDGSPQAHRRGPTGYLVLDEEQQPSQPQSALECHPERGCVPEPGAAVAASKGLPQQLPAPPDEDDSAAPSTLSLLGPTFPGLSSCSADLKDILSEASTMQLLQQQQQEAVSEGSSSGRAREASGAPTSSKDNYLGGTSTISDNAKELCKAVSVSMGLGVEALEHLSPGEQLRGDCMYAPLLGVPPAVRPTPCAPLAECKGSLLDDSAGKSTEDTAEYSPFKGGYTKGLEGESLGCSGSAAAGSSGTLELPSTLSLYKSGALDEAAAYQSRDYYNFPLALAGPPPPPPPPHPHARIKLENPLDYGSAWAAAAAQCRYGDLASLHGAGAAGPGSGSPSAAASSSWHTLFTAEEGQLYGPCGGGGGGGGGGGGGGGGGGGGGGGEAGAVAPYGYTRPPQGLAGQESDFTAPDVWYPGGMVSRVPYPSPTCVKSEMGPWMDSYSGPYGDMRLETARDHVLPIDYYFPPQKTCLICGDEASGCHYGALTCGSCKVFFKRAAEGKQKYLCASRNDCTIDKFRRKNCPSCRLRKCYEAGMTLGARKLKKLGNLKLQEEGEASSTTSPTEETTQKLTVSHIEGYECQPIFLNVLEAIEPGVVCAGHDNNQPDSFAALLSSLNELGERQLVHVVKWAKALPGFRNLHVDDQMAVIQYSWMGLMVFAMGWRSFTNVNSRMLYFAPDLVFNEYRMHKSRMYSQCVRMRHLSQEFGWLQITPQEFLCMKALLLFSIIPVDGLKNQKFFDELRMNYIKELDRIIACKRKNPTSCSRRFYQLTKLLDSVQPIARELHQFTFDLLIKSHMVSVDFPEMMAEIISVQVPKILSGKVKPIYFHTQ
The settings on record: at 10 µM.
Description: Inhibition of AR transcriptional activity in AR-positive human 22Rv1 cells harboring ARE14 construct assessed as suppression of PSA expression at 10 uM after 24 hrs by immunoblot analysis

Assay [18] addresses T1, Androgen receptor (Homo sapiens). The settings on record: at 10 µM. The source holds these as a separate data set.
Description: Inhibition of AR transcriptional activity in AR-positive human 22Rv1 cells harboring ARE14 construct assessed as suppression of NKX3.1 expression at 10 uM after 24 hrs by immunoblot analysis
Assay [19] deals with LAPC4. Nature of the assay: Antiproliferative activity against AR-positive human LAPC4 cells assessed as cell viability at 40 uM measured after 72 hrs by resazurin dye based fluorescence assay relative to control. The format is functional. The settings on record: LAPC4, 72 h, read-out: Activity.
The test system of assay [20] is CWR22R. The assay can be described thus: Antiproliferative activity against human AR-positive 22Rv1 cells harboring ARE14 construct assessed as growth inhibition measured after 72 hrs by resazurin dye based fluorescence assay. In kind it is functional. The settings on record: 22Rv1, 72 h.
In assay [21] the target is T1, Androgen receptor (Homo sapiens). The settings on record: at 10 µM. The source holds these as a separate data set.
Description: Inhibition of R1881 induced-AR transcriptional activity in AR-positive human 22Rv1 cells harboring ARE14 construct at 10 uM after 24 hrs by luciferase assay
Assay [22] concerns CWR22R. The assay can be described thus: Inhibition of colony formation in AR-positive human 22Rv1 cells harboring ARE14 construct at 1.25 to 20 uM incubated for 10 days by crystal violet staining. In kind it is functional, cell-based.
The target in assay [23] is T1, Androgen receptor (Homo sapiens). The assay can be described thus: Inhibition of AR transcriptional activity in AR-positive human VCaP cells assessed as PSA protein expression at 5 to 20 uM after 24 hrs by immunoblot analysis. The format is cell-based.
Assay [24] shares this target. The assay can be described thus: Inhibition of AR transcriptional activity in AR-positive human VCaP cells assessed as NKX3.1 protein expression at 5 to 20 uM after 24 hrs by immunoblot analysis. In kind it is cell-based.
The target is the same in assay [25]. Nature of the assay: Inhibition of AR transcriptional activity in AR-positive human VCaP cells assessed as decrease in PSA protein expression at 20 uM after 48 hrs by immunoblot analysis. In kind it is cell-based.
The target is the same in assay [26]. Nature of the assay: Inhibition of R1881 induced-AR transcriptional activity in AR-positive human 22Rv1 cells harboring ARE14 construct after 24 hrs by luciferase assay.
The target is the same in assay [27]. Nature of the assay: Inhibition of AR transcriptional activity in AR-positive human VCaP cells assessed as decrease in NKX3.1 protein expression at 20 uM upto 72 hrs by immunoblot analysis. In kind it is cell-based.
Assay [28] has the same target. The assay can be described thus: Inhibition of R1881 induced-AR transcriptional activity in AR-positive human 22Rv1 cells harboring ARE14 construct assessed as luciferase activity at 10 uM after 24 hrs by luciferase assay relative to control. Also on record: scale not given: the % may be the effect or the level left.

Broadly, the GI50 is the concentration giving 50% growth inhibition.

SMILES strings stand for the structures. Active and inactive are the calls of the source. The rule behind the calls is not given here.

Turning to `C[C@]12CC[C@H](O)CC1=CC[C@@H]1[C@@H]2CC[C@]2(C)C(n3cnc4ccccc43)=CC[C@@H]12` [GALETERONE], the viability at 10 µM in the assay on VCaP [1] is 72.9%; in the assay with CWR22R [2], greater than 100%; with LNCaP [3] it was 91.6%; with PC-3 [5], greater than 100%; with LAPC4 [6], 92.8%. For the same compound, the outcome in the assay on CWR22R [4] and with VCaP [7] was Active.

For `COC(=O)c1nn2c(c1C(=O)OC)C[C@]1(C(C)=O)[C@@H](C[C@H]3[C@@H]4CC=C5C[C@@H](OC(C)=O)CC[C@]5(C)[C@H]4CC[C@@]31C)[C@H]2Cc1ccccc1`, the GI50 in the assay with LAPC4 [8], with LNCaP [10], in the assay with VCaP [12], in the assay with PC-3 [13] and in the assay on CWR22R [20] was greater than 40 µM throughout. Besides, the viability at 40 µM in the assay with VCaP [9] is 85.9%; with CWR22R [14], 15%; in the assay on PC-3 [15] it was greater than 100%; in the assay with LNCaP [16], 89.7%; in the assay on LAPC4 [19] it was greater than 100%. Besides, in the assay on CWR22R [11], the outcome was inactive. The inhibition entry in [17], in assay [18] and in [21] was “inactive” in each case.

Consider `COC(=O)c1cnn2c1C[C@]1(C(C)=O)[C@@H](C[C@H]3[C@@H]4CCC5=CC(=O)CC[C@]5(C)[C@H]4CC[C@@]31C)C2`, for which the concentration for 50% growth inhibition (GI50) with LAPC4 [8], with LNCaP [10], with VCaP [12], in the assay on PC-3 [13] and in the assay with CWR22R [20] was greater than 40 µM throughout. In addition, the viability at 40 µM is 85.1% with VCaP [9]; 80.4% in the assay with CWR22R [14]; 98.3% in the assay on PC-3 [15]; 77.3% in the assay with LNCaP [16]; 95.1% in the assay with LAPC4 [19]. Also, the result in the assay on CWR22R [11] was inactive. For the same compound, the inhibition entry (in the assay on CWR22R [22]; in assay [25]; in assay [17]; in [27]; in assay [18]) was “Active” throughout. Further, the inhibition entry in assay [23] and in assay [24] was “inactive” each time. Moreover, the result in the assay on CWR22R [4] and in the assay on VCaP [7] was Active. Moreover, in assay [26], the inhibition result is “Dose-dependent effect”. For the same compound, the Activity in assay [28] came out at 40%.

Source of the values: ChEMBL document CHEMBL4364252, “Tetrahydropyrazolo[1,5-a]pyridine-fused steroids and their in vitro biological evaluation in prostate cancer” (2019).
